# Calls of active or inactive are those of the source.
# Key:
# [1] = molecular target: T1, Heat shock factor protein 1 (Mus musculus, UniProt P38532); assay: HSF1 potentiators in luciferase reporter cells, confirmation, cell-based, NIH3T3, luminescence, dose retest (AID 435004); format: functional;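 further: stress induced by proteasome inhibitor MG132 added 30 min after compound; luciferase reporter driven by HSF1 response element in NIH3T3 cells; actives raise luminescence as potentiators of the MG132 stress response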
# T1 sequence (P38532 whole entry): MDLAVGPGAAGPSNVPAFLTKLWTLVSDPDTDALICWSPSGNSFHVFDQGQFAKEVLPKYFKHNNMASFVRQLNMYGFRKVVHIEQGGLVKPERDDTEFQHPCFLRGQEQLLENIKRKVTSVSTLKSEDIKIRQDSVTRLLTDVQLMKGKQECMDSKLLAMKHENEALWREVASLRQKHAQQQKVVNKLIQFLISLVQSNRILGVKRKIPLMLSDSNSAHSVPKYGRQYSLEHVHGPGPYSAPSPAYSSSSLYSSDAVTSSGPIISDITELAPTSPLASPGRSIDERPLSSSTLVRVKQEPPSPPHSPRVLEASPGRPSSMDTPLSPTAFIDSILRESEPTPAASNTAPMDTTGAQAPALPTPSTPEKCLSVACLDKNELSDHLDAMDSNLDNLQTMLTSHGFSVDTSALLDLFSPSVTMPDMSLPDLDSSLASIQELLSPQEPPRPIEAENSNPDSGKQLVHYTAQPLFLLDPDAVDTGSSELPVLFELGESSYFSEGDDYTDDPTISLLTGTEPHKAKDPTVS
# [2] = molecular target: Heat shock protein HSP 90-alpha (Homo sapiens, UniProt P07900); format: functional, organism-based
# HeLa = assay: HeLa cell cytotoxicity, dose response, cytotoxicity control for MITF activator project, CellTiter-Glo luminescence, cherry-pick samples (AID 540259); format: functional, cell-based; settings: Homo sapiens
# [3] = molecular target: T2, Microphthalmia-associated transcription factor (Homo sapiens, UniProt O75030); assay: TRPM1 promoter luciferase signal decrease, dose response, MITF inhibitor project, cell-based, SK-MEL-5, cherry-picked, set 3 (AID 493073); format: functional
# T2 sequence (O75030 whole entry): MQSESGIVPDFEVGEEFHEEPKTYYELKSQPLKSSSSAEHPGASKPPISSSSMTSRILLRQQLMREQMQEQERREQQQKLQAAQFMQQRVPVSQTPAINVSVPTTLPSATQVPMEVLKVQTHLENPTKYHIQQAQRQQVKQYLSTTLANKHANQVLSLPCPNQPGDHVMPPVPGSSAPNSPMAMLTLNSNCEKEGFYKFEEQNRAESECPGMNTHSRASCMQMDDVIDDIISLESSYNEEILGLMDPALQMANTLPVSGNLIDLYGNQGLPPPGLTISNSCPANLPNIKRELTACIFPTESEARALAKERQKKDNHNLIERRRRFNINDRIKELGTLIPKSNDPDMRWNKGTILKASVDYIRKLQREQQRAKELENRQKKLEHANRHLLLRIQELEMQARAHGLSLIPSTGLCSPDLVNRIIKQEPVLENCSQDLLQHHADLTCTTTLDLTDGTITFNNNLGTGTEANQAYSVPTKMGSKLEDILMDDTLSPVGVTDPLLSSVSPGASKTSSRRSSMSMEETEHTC
# CHO = assay: cytotoxicity in TLR9-MyD88 CHO cells, dose response, cytotoxicity control for TLR9-MyD88 binding inhibitor project, cell-based, luminescence (AID 588339); format: functional, hamster; settings: Cricetulus griseus;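 further: CHO cells stably coexpressing TLR9 and MyD88 fusions from primary screen; compound exposure lasted 48 hours before viability readout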
# [4] = Shn3 3'UTR reporter inhibitors, dose response, cell-based, Clone20 osteoblasts, firefly luciferase, cherry-picked (AID 624132); format: functional;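 further: firefly luciferase luminescence from reporter carrying the Shn3 3'UTR in osteoblasts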
# [5] = HepG2 cell cytotoxicity, dose response, cytotoxicity control for Shn3 inhibitor project, CellTiter-Glo, cherry-picked (AID 624134); format: functional, cell-based
# [6] = control 3'UTR Renilla luciferase suppression, dose response, counter-screen for Shn3 inhibitor project, cell-based, Clone20-Shn3RL, cherry-picked (AID 624133); format: functional
# Paired box protein Pax-8 = Paired box protein Pax-8 (Homo sapiens, UniProt Q06710); assay: inhibitors of PAX8-driven TPO luciferase reporter, dose response, RMG-I cells, cherry-pick (AID 687027); format: functional, cell-based;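 further: luciferase reporter driven by Pax8 target thyroperoxidase promoter measured by SteadyGlo luminescence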
# Sequence of Paired box protein Pax-8 (Q06710 whole entry): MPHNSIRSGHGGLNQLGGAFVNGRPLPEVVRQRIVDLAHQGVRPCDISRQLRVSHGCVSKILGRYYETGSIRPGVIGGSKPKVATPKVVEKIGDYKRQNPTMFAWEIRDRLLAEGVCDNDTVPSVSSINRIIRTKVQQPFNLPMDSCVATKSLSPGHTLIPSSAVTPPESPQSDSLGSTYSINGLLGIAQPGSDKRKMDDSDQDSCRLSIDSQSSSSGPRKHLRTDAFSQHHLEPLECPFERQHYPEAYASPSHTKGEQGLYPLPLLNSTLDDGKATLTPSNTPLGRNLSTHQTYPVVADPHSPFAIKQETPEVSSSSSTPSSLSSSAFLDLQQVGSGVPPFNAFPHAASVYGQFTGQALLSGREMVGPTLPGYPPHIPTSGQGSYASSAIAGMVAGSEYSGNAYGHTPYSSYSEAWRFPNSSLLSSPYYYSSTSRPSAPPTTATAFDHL
# [7] = non-specific cell cytotoxicity, dose response, cytotoxicity control for PAX8 inhibitor project, plate reader, dry powder samples (AID 743021); format: functional, cell-based
# [8] = inhibitors of firefly luciferase expression or activity, dose response, H4 neuroglioma cells, luminescence (AID 1990); format: functional, cell-based
# BJ [9] = assay: cytotoxicity toward BJ-TERT fibroblasts, dose response, cell-based, RAS-independent, luminescence (AID 1933); format: functional; settings: Homo sapiens
# [10] = Luminescence Cell-Based Dose Response HTS to Identify Inhibitors of 5'UTR Stem-Loop Driven Prion Protein mRNA Translation in H4 Neuroglioblastoma Cells. [Related pubchem assays: 1827 (Project Summary), 1813 (Primary HTS)]; format: functional
# [11] = inhibitors of SNCA 5'UTR-driven reporter translation, confirmation, H4 neuroglioma cells, luminescence (AID 1988); format: functional, cell-based
# BJ [12] = assay: cells; format: functional, cell-based; settings: Homo sapiens
# [13] = microbe, parasite or virus in culture; format: functional; settings: Mycobacterium tuberculosis
# BJ [14] = assay: cytotoxicity toward BJ-TERT-LT-ST fibroblasts, dose response, cell-based, RAS-independent, luminescence (AID 1935); format: functional; settings: Homo sapiens;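 further: BJ fibroblasts immortalized with TERT plus LT and ST oncogenes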
# [15] = cytotoxicity toward DRD oncogenic fibroblasts, dose response, cell-based, non-viral oncogenic, luminescence (AID 1934); format: functional; settings: Homo sapiens
# [16] = cytotoxicity in HEK-293T cells, dose response, cytotoxicity control for TCR NF-kB inhibitor project, luminescence, T-cell screen hits (AID 489026); format: functional, cell-based;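 further: cells exposed to compound about 14 hours before the viability readout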
# BJ [17] = assay: cytotoxicity toward Ras-transformed BJeLR fibroblasts, dose response, cell-based, alamar blue fluorescence, cherrypicked samples (AID 2631); format: functional; settings: Homo sapiens;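 further: confirmatory dose-response assay in RAS-dependent BJ fibroblasts engineered with TERT, LT and ST, with cytotoxicity read by fluorescence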
# [18] = HEp-2 cell cytotoxicity, dose response, cytotoxicity control for RSV inhibitor project, HTS (AID 2410); format: functional; settings: human respiratory syncytial virus
compound,measurement,setting,value
O=C(c1ccc2c(=O)n(C3CCCC3)c(=S)[nH]c2c1)N1CCc2ccccc21,EC50,[1],> 260 µM (inactive)
same,AC50,[2],3.49 µM (active)
Cc1ccc(-c2noc(C3CCCCC3)n2)cc1,AC50,HeLa,79.6 µM (active)
CC1(C(=O)c2ccccc2)C2c3c(ccc4ccccc34)OC(=O)C21C(=O)N1CCOCC1 (stereo not drawn),AC50,[2],4.17 µM (active)
CS(=O)(=O)c1ccc(C(=O)OCC(=O)NCc2cccs2)cc1[N+](=O)[O-],AC50,[3],11.7 µM (active)
same,IC50,CHO,4.83 µM (active)
same,AC50,[4],2.07 µM (active)
same,AC50,[5],62.3 µM (active)
same,AC50,[6],13.4 µM (active)
same,AC50,Paired box protein Pax-8,14 µM (active)
same,AC50,[7],26 µM (active)
CCCCOc1ccc(Br)cc1/C(C)=N/NC1=NCCN1,EC50,[8],4.71 µM (inconclusive)
same,EC50,BJ [9],3.18 µM (inconclusive)
same,EC50,[10],4.92 µM (active)
same,EC50,[11],3.86 µM (active)
same,EC50,BJ [12],8.49 µM (inconclusive)
same,CC50,[13],8.31 µM (active)
same,EC50,BJ [14],6.41 µM (inconclusive)
same,EC50,[15],6.08 µM (active)
same,IC50,[16],46.8 µM (inactive)
same,EC50,BJ [17],0.619 µM (inconclusive)
C(=N\Nc1nc2ccccc2[nH]1)/c1ccc2ncccc2c1,CC50,[18],2.99 µM (active)
same,EC50,BJ [9],10.8 µM (active)
same,EC50,BJ [12],2.75 µM (inconclusive)
same,EC50,BJ [14],30.7 µM (active)
same,EC50,[15],2.32 µM (inconclusive)
same,EC50,BJ [17],> 133 µM (inactive)
CN(/N=C/c1ccc2c(c1)OCO2)c1ccccc1,AC50,HeLa,98.3 µM (active)

# From ChEMBL document CHEMBL1201862, “PubChem BioAssay data set” (2004)
